Assay results: US12144864B2, “Tubulysins and protein-tubulysin conjugates” (Regeneron Pharmaceuticals, Inc., priority 2018, dated 2024)
Several values for one entry are separate records, joined by “and”; a condition that tells them apart may be missing. Equal entries are not always repeated. Where two headings read alike, the source gives them in different places. Non-standard residues stand in square brackets, D forms with d. Residues, ends and D or L forms follow the SMILES beside them. *: point of attachment. Dolaproine = CO[C@@H]([C@@H]1CCCN1)[C@@H](C)C(=O)O; Dil = CC[C@H](C)[C@H](NC)[C@@H](CC(=O)O)OC; X1 = C[C@@H](N*)[C@@H](O)c1ccccc1; NMeV = CN[C@H](C(=O)O)C(C)C

What was measured:
HCT-15 cells = experiment: Cytotoxicity in panel of MDR cell lines, HCT-15 (72 h and 144 h); format: cell-based, human
In short: (§1)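 Viability was measured as ATP luminescence (CellTiter-Glo) after 72 h and 144 h payload exposure, using 1:3 dilution series. Each line had 1000 cells/well: H69AR in RPMI with 20% FBS, HCT-15 and HL60/MX2 in RPMI with 10% FBS, and MES-SA/MX2 in 1:1 Waymouth's:McCoy's with 10% FBS. Values are four-parameter logistic IC50 and % kill (100 − % viable) at the highest dose.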

H69AR cells = experiment: Cytotoxicity in panel of MDR cell lines, H69AR (72 h and 144 h); format: cell-based, human
In short: as §1

C4-2 cells [1] = experiment: Cytotoxicity of anti-STEAP2 ADCs, payloads and reference compounds in C4-2 cells; format: cell-based, human
Experimental: To test the ability of the disclosed tubulysin payloads to kill human cell lines, an in vitro cytotoxicity assay was performed. In vitro cytotoxicity of the disclosed payloads, as well as reference compounds, were evaluated using the CellTiter-Glo Assay Kit (Promega, Cat #G7573), in which the quantity of ATP present is used to determine the number of viable cells in culture. For the assay, C4-2, HEK293, or T47D cells were seeded at 4000 cells/well on Nunclon white 96-well plates in complete growth medium (DME high glucose:Ham's F12 at 4:1, 10% FBS, 100 units/ml Penicillin, 100 ug/ml streptomycin, 53 ug/ml glutatmine, 10 ug/ml insulin, 220 ng/ml biotin, 12.5 pg/ml T3, 12.5 ug/ml Adenine, 4 ug/ml transferrin for C42 cells; DME high glucose, 10% FBS, 100 units/ml Penicillin, 100 ug/ml streptomycin, 53 ug/ml glutatmine for HEK293; RPMI, 10% FBS, 100 units/ml Penicillin, 100 ug/ml streptomycin, 53 ug/ml glutatmine, 10 ug/ml insulin, 10 mM HEPEs, 200 nM Sodium Pyruvate for T47D cells) and grown overnight at 37° C. in 5% CO2. For cell viability curves, 1:3 serially diluted payloads were added to the cells at final concentrations ranging from 100 nM to […], including a no treatment control group, and were then incubated for 5 days. After the 5-day incubation, cells were incubated at room temperature with 100 μL of CellTiter-Glo reagents for 10 minutes. Relative luminescence units (RLU) were determined on a Victor plate reader (PerkinElmer). The IC50 values were determined from a four-parameter logistic equation over a 10-point response curve (GraphPad Prism). All IC50 values are expressed in molar (M) concentration. The percent cell killing (% kill) at the maximum concentration tested was estimated from the following formula (100−% viable cells). Averages±standard deviation (SD) are included where replicate experiments were performed.
To further test the ability of the disclosed tubulysin payloads, reference compounds, and antibody drug conjugates using these payloads, a cytotoxicity assay was performed using C4-2 cells as described in this example (see above). For these studies, anti-STEAP2 antibodies were conjugated to select tubulysins payloads, and the compounds were tested at concentrations starting at 100 nM with 3-fold serial dilution. All IC50 values are expressed in nM concentration and the percent cell killing at the maximum concentration tested was estimated from the following formula (100−% viable cells).

C4-2 cells [2] = experiment: Cell-based killing assay of payloads (CellTiter-Glo), C4-2 cells; set-up: species or system human; conditions: 5-day incubation; for IC50: average ± SD where replicates; for C4-2 % Kill: at maximum concentration tested (100 − % viable cells)
In short: (§2)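 Viability readout is CellTiter-Glo luminescence after a 5-day exposure to 10-point, threefold-diluted payloads spanning 100 nM–[…], following overnight attachment of 4000 cells/well. Four-parameter logistic fit gives IC50 in M; % kill taken at highest concentration tested.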

HCT15 cells = experiment: cells; format: cell-based, human; conditions: for HCT-15 + verapamil % Kill / IC50 / HCT-15 % Kill: HCT15 cells; for HCT-15 + verapamil % Kill / HCT-15 % Kill: maximum % cell killing
In short: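 Five-day exposure of 1000 HCT15 cells/well to threefold payload dilutions, run both plus and minus verapamil (5 ug/mL) in RPMI with 10% FBS. ATP luminescence (CellTiter-Glo) gives viability; four-parameter logistic fit of 10 points yields IC50, and 100 − % viable at highest dose gives % kill.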

HL60/MX2 cells = experiment: Cytotoxicity in panel of MDR cell lines, HL60/MX2 (72 h and 144 h); format: cell-based, human
In short: as §1

MES-SA/MX2 cells = experiment: Cytotoxicity in panel of MDR cell lines, MES-SA/MX2 (72 h and 144 h); format: cell-based, human
In short: as §1

T47D cells = experiment: Cell-based killing assay of payloads (CellTiter-Glo), T47D cells; set-up: species or system human; conditions: 5-day incubation; for IC50: Homo sapiens, T47D, 120 h; for T47D % Kill: at maximum concentration tested
In short: as §2

HEK293 cells = experiment: Cell-based killing assay of payloads (CellTiter-Glo), HEK293 cells; set-up: species or system human; conditions: 5-day incubation; for IC50: Homo sapiens, HEK293, 120 h; for HEK293 % Kill: at maximum concentration tested
In short: as §2

[3] = with 5 ug/mL Verapamil, read-out: HCT-15 + verapamil IC50
[4] = Homo sapiens, 72 h incubation, read-out: HCT-15 IC50 72 h
[5] = Homo sapiens, 144 h incubation, read-out: HCT-15 IC50 144 h
[6] = Homo sapiens, 72 h incubation, read-out: H69AR IC50 72 h
[7] = Homo sapiens, 144 h incubation, read-out: H69AR IC50 144 h
[8] = Homo sapiens, HCT-15, without Verapamil, read-out: HCT-15 IC50
[9] = Homo sapiens, 72 h incubation, read-out: HL60/MX2 IC50 72 h
[10] = Homo sapiens, 144 h incubation, read-out: HL60/MX2 IC50 144 h
[11] = Homo sapiens, 72 h incubation, read-out: MES-SA/MX2 IC50 72 h
[12] = Homo sapiens, 144 h incubation, read-out: MES-SA/MX2 IC50 144 h

| Compound | HCT-15 % Kill 72 h (HCT-15 cells; 72 h incubation) [%] | H69AR % Kill 72 h (H69AR cells; 72 h incubation) [%] | H69AR % Kill 144 h (H69AR cells; 144 h incubation) [%] | C4-2 % Kill (C4-2 cells [2]) | HCT-15 + verapamil % Kill (HCT15 cells; with 5 ug/mL Verapamil) [%] | IC50 (HCT15 cells; [3]) [nM] | HCT-15 % Kill (HCT15 cells; without Verapamil) [%] | HL60/MX2 % Kill 72 h (HL60/MX2 cells; 72 h incubation) [%] | HL60/MX2 % Kill 144 h (HL60/MX2 cells; 144 h incubation) [%] | MES-SA/MX2 % Kill 72 h (MES-SA/MX2 cells; 72 h incubation) [%] | MES-SA/MX2 % Kill 144 h (MES-SA/MX2 cells; 144 h incubation) [%] | HCT-15 % Kill 144 h (HCT-15 cells; 144 h incubation) [%] | IC50 (HCT-15 cells; [4]) [nM] | IC50 (HCT-15 cells; [5]) [nM] | IC50 (T47D cells) [nM] | T47D % Kill (T47D cells) [%] | IC50 (H69AR cells; [6]) [nM] | IC50 (H69AR cells; [7]) [nM] | IC50 (C4-2 cells [2]; Homo sapiens, C4-2, 120 h) [nM] | IC50 (HEK293 cells) [nM] | other results |
| --- | --- | --- | --- | --- | --- | --- | --- | --- | --- | --- | --- | --- | --- | --- | --- | --- | --- | --- | --- | --- | --- |
| CC[C@H](C)[C@@H]([C@@H](CC(=O)N1CCC[C@H]1[C@H](OC)[C@@H](C)C(=O)N[C@H](C)[C@@H](O)c1ccccc1)OC)N(C)C(=O)[C@@H](NC(=O)[C@@H](NC)C(C)C)C(C)C [MMAE, Monomethyl auristatin E, reference compound] (H-[NMeV]V[Dil][Dolaproine]-X1) | 93.7 | 66.8 | 92.7 | 93.7% and 93.7 ± 2.5% | 98.4 ± 0.5 | 0.782 | 97.1 ± 3.7 | 88.7 | 99.6 | 65.6 | 58.1 | – | – | – | – | – | – | – | – | – | IC50 (HCT-15 cells; 72 h incubation, read-out: HCT-15 IC50 72 h): 16.8 nM; IC50 (H69AR cells; 72 h incubation, read-out: H69AR IC50 72 h): 0.923 nM; IC50 (H69AR cells; 144 h incubation, read-out: H69AR IC50 144 h): 0.683 nM; % kill (C4-2 cells [1]; at maximum concentration tested): 99%; IC50 (C4-2 cells [1]; top concentration 100 nM, 3-fold serial dilution): 0.22 nM; IC50 (C4-2 cells [2]): 0.287 nM; IC50 (HCT15 cells; without Verapamil, read-out: HCT-15 IC50): 17.7 nM; HCT-15 IC50/HCT-15+Verapamil IC50 ratio (HCT15 cells; IC50 without Verapamil divided by IC50 with Verapamil): 23.7; HCT15 IC50/HCT-15 + Verapamil IC50 (HCT15 cells; ratio of IC50 without Verapamil to IC50 with Verapamil): 23.7 ± 12.0; IC50 (HL60/MX2 cells; 72 h incubation, read-out: HL60/MX2 IC50 72 h): 0.418 nM; IC50 (HL60/MX2 cells; 144 h incubation, read-out: HL60/MX2 IC50 144 h): 0.164 nM; IC50 (MES-SA/MX2 cells; 72 h incubation, read-out: MES-SA/MX2 IC50 72 h): 37.3 nM; IC50 (MES-SA/MX2 cells; 144 h incubation, read-out: MES-SA/MX2 IC50 144 h): 0.683 nM |
| C#CCCCCN(C(=O)[C@@H](NC(=O)[C@H]1CCCCN1C)[C@@H](C)CC)[C@H](C[C@@H](OC(C)=O)c1nc(C(=O)N[C@@H](Cc2ccc(F)cc2)CC(C)(C)C(=O)O)cs1)C(C)C [IVc, (4S)-4-({2-[(1R,3R)-1-(Acetyloxy)-3-[(2S,3S)—N-(hex-5-yn-1-yl)-3-methyl-2-{[(2R)-1-methylpiperidin-2-yl]formamido}pentanamido]-4-methylpentyl]-1,3-thiazol-4-yl}formamido)-5-(4-fluorophenyl)-2,2-dimethylpentanoic acid] | 97.3 | 96.6 | 99.3 | 92.2% | 98 | 0.113 | 99.2 | 97.7 | 99.9 | 98.2 | 99.9 | 99.8 | 0.125 | 0.165 | 0.205 | 81.4 | 0.36 | 0.725 | 0.0924 | 0.307 | HEK293 % Kill (HEK293 cells): 84.8%; IC50 (HCT15 cells; [8]): 0.302 nM; IC50 (HL60/MX2 cells; [9]): < 0.015 nM; IC50 (HL60/MX2 cells; [10]): < 0.015 nM; IC50 (MES-SA/MX2 cells; [11]): 0.374 nM; IC50 (MES-SA/MX2 cells; [12]): 0.604 nM |
| C#CCCCON(C(=O)[C@@H](NC(=O)[C@H]1CCCCN1C)[C@@H](C)CC)[C@H](C[C@@H](OC(C)=O)c1nc(C(=O)N[C@@H](Cc2ccccc2)CC(C)(C)C(=O)O)cs1)C(C)C [Vc, (4S)-4-({2-[(1R,3R)-1-(Acetyloxy)-4-methyl-3-[(2S,3S)-3-methyl-2-{[(2R)-1-methylpiperidin-2-yl]formamido}-N-(pent-4-yn-1-yloxy)pentanamido]pentyl]-1,3-thiazol-4-yl}formamido)-2,2-dimethyl-5-phenylpentanoic acid] | 97.6 | 96.6 | 99.4 | 91.7% | 96.7 | 0.146 | 97.6 | 98.4 | 99.9 | 99.2 | 100 | 99.7 | 0.033 | 0.0675 | 0.0677 | 64.9 | 0.154 | 0.287 | 0.036 | 0.113 | HEK293 % Kill (HEK293 cells): 86.9%; IC50 (HCT15 cells; [8]): 0.475 nM; IC50 (HL60/MX2 cells; [9]): < 0.015 nM; IC50 (HL60/MX2 cells; [10]): < 0.015 nM; IC50 (MES-SA/MX2 cells; [11]): 0.0895 nM; IC50 (MES-SA/MX2 cells; [12]): 0.299 nM |
